# Test results as given in ChEMBL document CHEMBL5584339, “Design, Synthesis, and Evaluation of the Antitubercular Activity of 5-Phenyl Substituted-5, 6-dihydropyrido[2, 3-d]pyrimidine-4, 7(3H, 8H)-dione Compounds” (J Med Chem, 2024).
# Active and inactive are the calls of the source. The rule behind the calls is not given here.
# Legend:
# [1] = Cytotoxicity against african green monkey Vero cells incubated for 48 hrs by CCK8 assay; type: toxicity, cell-based, Chlorocebus sabaeus
# [2] = Selectivity index, ratio of IC50 for african green monkey Vero cells to IC50 for Mycobacterium tuberculosis H37Rv; type: toxicity; conditions: read-out: Ratio IC50
# [3] = system: Mycobacterium tuberculosis; assay: Antitubercular activity against Mycobacterium tuberculosis H37Rv incubated for 7 days by alamar blue assay; type: functional; conditions: 168 h, time 7 day
# [4] = Metabolic stability in human liver microsomes assessed as intrinsic clearance per mg protein at 2 uM preincubated for 60 mins followed by NADPH addition and measured upto 60 mins by LC-MS analysis; type: ADME, Microsome; conditions: time < 120 min, read-out: CLH
# [5] = Metabolic stability in mouse liver microsomes assessed as intrinsic clearance per mg protein at 2 uM preincubated for 60 mins followed by NADPH addition and measured upto 60 mins by LC-MS analysis; type: ADME, Microsome; conditions: time < 120 min, read-out: CLH
# [6] = Metabolic stability in mouse liver microsomes assessed as half-life at 2 uM preincubated for 60 mins followed by NADPH addition and measured upto 60 mins by LC-MS analysis; type: ADME, Microsome; conditions: time < 120 min
# [7] = Cytotoxicity against HK-2 cells incubated for 48 hrs by CCK8 assay; type: toxicity, cell-based; conditions: human
# [8] = Metabolic stability in mouse liver microsomes assessed as substrate remaining at 2 uM preincubated for 60 mins followed by NADPH addition and measured upto 60 mins by LC-MS analysis; type: ADME, Microsome; conditions: time < 120 min, read-out: Stability
# [9] = Metabolic stability in human liver microsomes assessed as half-life at 2 uM preincubated for 60 mins followed by NADPH addition and measured upto 60 mins by LC-MS analysis; type: ADME, Microsome; conditions: time < 120 min
# [10] = Metabolic stability in human liver microsomes assessed as substrate remaining at 2 uM preincubated for 60 mins followed by NADPH addition and measured upto 60 mins by LC-MS analysis; type: ADME, Microsome; conditions: time < 120 min, read-out: Stability
# [11] = system: Mycobacterium tuberculosis; assay: Binding affinity to Mycobacterium tuberculosis AccD5 at 10 uM by SPR analysis
Structure (SMILES),IC50 at 48 h [1],selectivity ratio [2],MIC [3],other results
CCCCSc1nc2c(c(=O)[nH]1)C(c1ccc(OC)cc1O)CC(=O)N2 (stereo unspecified),41.2 µg/mL,8.87,4.65 µg/mL,–
COc1ccc(C2CC(=O)Nc3nc(SC(C)C)[nH]c(=O)c32)cc1 (stereo unspecified),> 100 µg/mL,> 44.1,2.27 µg/mL,–
CCCSc1nc2c(c(=O)[nH]1)C(c1ccc(OC)c(O)c1O)CC(=O)N2 (stereo unspecified),27.5 µg/mL,–,> 10 µg/mL,–
CCCSc1nc2c(c(=O)[nH]1)C(c1ccc(OCC)cc1)CC(=O)N2 (stereo unspecified),60.1 µg/mL,174,0.35 µg/mL,–
CCCOc1ccc(C2CC(=O)Nc3nc(SCCC)[nH]c(=O)c32)c(O)c1 (stereo unspecified),43.9 µg/mL,35.6,1.23 µg/mL,–
CCCSc1nc2c(c(=O)[nH]1)C(c1ccc(OC(C)C)cc1)CC(=O)N2 (stereo unspecified),24.9 µg/mL,11.7,2.12 µg/mL,–
CCCSc1nc2c(c(=O)[nH]1)C(c1ccc(OC)cc1)CC(=O)N2C (stereo unspecified),53.6 µg/mL,–,> 10 µg/mL,–
CCCSc1nc2c(c(=O)[nH]1)C(c1ccc(OC)c([N+](=O)[O-])c1)CC(=O)N2 (stereo unspecified),67.5 µg/mL,14,4.84 µg/mL,–
CCCOc1ccc(C2CC(=O)Nc3nc(SC)[nH]c(=O)c32)cc1 (stereo unspecified),53.5 µg/mL,< 5.4,> 10 µg/mL,–
CCCSc1nc2c(c(=O)[nH]1)C(c1ccc(OC)cc1[N+](=O)[O-])CC(=O)N2 (racemic),> 100 µg/mL,> 833,0.12 µg/mL,"microsomal CLint at 2 µM [4]: 11.2 µL/min/mg; microsomal CLint at 2 µM [5]: 14.2 µL/min/mg; half-life at 2 µM [6]: 97.3 min; IC50 at 48 h [7]: > 100 µg/mL; remaining at 1 h, 2 µM [8]: 66.8%; half-life at 2 µM [9]: 124 min; remaining at 1 h, 2 µM [10]: 73.7%"
CCCCSc1nc2c(c(=O)[nH]1)C(c1ccc(OCCC)cc1)CC(=O)N2 (stereo unspecified),57 µg/mL,–,> 10 µg/mL,–
NNC(=O)c1ccncc1 [ISONIAZID],> 100 µg/mL,> 2000,0.05 µg/mL,–
CCCSc1nc2c(c(=O)[nH]1)C(c1ccc(OC)c(O)c1)CC(=O)N2 (stereo unspecified),> 100 µg/mL,> 82.1,1.22 µg/mL,–
CCC[S+]([O-])c1nc2c(c(=O)[nH]1)[C@H](c1ccc(OC)cc1[N+](=O)[O-])CC(=O)N2 (stereo partly specified),–,–,> 32 µg/mL,–
CCCSc1nc2c(c(=O)n1C)C(c1ccccc1)CC(=O)N2C (stereo unspecified),–,–,> 10 µg/mL,–
CCCSc1nc2c(c(=O)n1C)C(c1ccc(OC)cc1)CC(=O)N2C (stereo unspecified),46.5 µg/mL,–,> 10 µg/mL,–
CCC[S+]([O-])c1nc2c(c(=O)[nH]1)[C@H](c1ccc(OC)cc1)CC(=O)N2 (stereo partly specified),–,–,> 32 µg/mL,–
CCCCCCCOc1ccc(C2CC(=O)Nc3nc(SCCC)[nH]c(=O)c32)cc1 (stereo unspecified),36.6 µg/mL,–,> 10 µg/mL,–
CCCCSc1nc2c(c(=O)[nH]1)C(c1ccc(OC)c(O)c1)CC(=O)N2 (stereo unspecified),40.1 µg/mL,12.6,3.19 µg/mL,–
CCCS(=O)(=O)c1nc2c(c(=O)[nH]1)[C@H](c1ccc(OC)cc1)CC(=O)N2,–,–,> 32 µg/mL,–
CCCSc1nc2c(c(=O)[nH]1)C(c1ccc(OC)cc1N)CC(=O)N2 (stereo unspecified),> 100 µg/mL,–,> 10 µg/mL,–
CCCSc1nc2c(c(=O)[nH]1)[C@H](c1ccc(OC)cc1)CC(=O)N2,> 64 µg/mL,–,7.83 µg/mL,IC50 at 48 h [7]: 73.1 µg/mL
CCCSc1nc2c(c(=O)[nH]1)C(c1ccccc1)CC(=O)N2C (stereo unspecified),52.5 µg/mL,< 5.2,> 10 µg/mL,–
CCCOc1ccc(C2CC(=O)Nc3nc(SCCC)[nH]c(=O)c32)cc1O (stereo unspecified),99.3 µg/mL,21,4.73 µg/mL,–

Structure (SMILES),IC50 at 48 h [1],selectivity ratio [2],MIC [3],other results
CCCCSc1nc2c(c(=O)[nH]1)C(c1ccc(OC)cc1)CC(=O)N2 (stereo unspecified),46.3 µg/mL,93.1,0.5 µg/mL,–
CCCSc1nc2c(c(=O)[nH]1)[C@H](c1ccc(OC)cc1[N+](=O)[O-])CC(=O)N2,> 64 µg/mL,–,7.72 µg/mL,IC50 at 48 h [7]: 56.2 µg/mL; Activity [11]: inactive
CCCS(=O)(=O)c1nc2c(c(=O)[nH]1)[C@H](c1ccc(OC)cc1[N+](=O)[O-])CC(=O)N2,–,–,> 32 µg/mL,–
C=CCSc1nc2c(c(=O)[nH]1)C(c1ccc(OC)cc1O)CC(=O)N2 (stereo unspecified),> 100 µg/mL,> 101,0.99 µg/mL,–
CCCSc1nc2c(c(=O)[nH]1)C(c1ccc(OC)c(N)c1)CC(=O)N2 (stereo unspecified),> 100 µg/mL,> 50,2 µg/mL,–
C=CCSc1nc2c(c(=O)[nH]1)C(c1ccc(OC)c(O)c1)CC(=O)N2 (stereo unspecified),> 100 µg/mL,> 45.7,2.19 µg/mL,–
CCCSc1nc2c(c(=O)[nH]1)C(c1ccc(OC)cc1O)CC(=O)N2 (stereo unspecified),54.1 µg/mL,56.9,0.95 µg/mL,–
CCCS(=O)(=O)c1nc2c(c(=O)[nH]1)[C@@H](c1ccc(OC)cc1[N+](=O)[O-])CC(=O)N2,–,–,> 32 µg/mL,–
COc1ccc(C2CC(=O)Nc3nc(SC)[nH]c(=O)c32)cc1O (stereo unspecified),> 100 µg/mL,–,> 10 µg/mL,–
C=CCSc1nc2c(c(=O)[nH]1)C(c1ccc(OC)cc1)CC(=O)N2 (stereo unspecified),41.1 µg/mL,82.2,0.5 µg/mL,–
CCCSc1nc2c(c(=O)[nH]1)C(c1ccc(OC)c(OC)c1)CC(=O)N2 (stereo unspecified),20.4 µg/mL,< 2,> 10 µg/mL,–
C=CCSc1nc2c(c(=O)[nH]1)C(c1ccc(OCCC)cc1)CC(=O)N2 (stereo unspecified),4.57 µg/mL,2.31,1.98 µg/mL,–
CCC[S+]([O-])c1nc2c(c(=O)[nH]1)[C@@H](c1ccc(OC)cc1[N+](=O)[O-])CC(=O)N2 (stereo partly specified),–,–,> 32 µg/mL,–
CCC[S+]([O-])c1nc2c(c(=O)[nH]1)[C@@H](c1ccc(OC)cc1)CC(=O)N2 (stereo partly specified),–,–,> 32 µg/mL,–
CCCSc1nc2c(c(=O)[nH]1)C(c1ccc(OCC(C)C)cc1)CC(=O)N2 (stereo unspecified),41.5 µg/mL,–,> 10 µg/mL,–
C=CCSc1nc2c(c(=O)[nH]1)C(c1ccc(OC)cc1[N+](=O)[O-])CC(=O)N2 (stereo unspecified),> 100 µg/mL,> 200,0.5 µg/mL,–
CCCSc1nc2c(c(=O)[nH]1)C(c1ccc(OC)cc1)CC(=O)N2 (racemic),14.5 µg/mL,93,0.16 µg/mL,"microsomal CLint at 2 µM [4]: 5.85 µL/min/mg; microsomal CLint at 2 µM [5]: 2.48 µL/min/mg; half-life at 2 µM [6]: 560 min; IC50 at 48 h [7]: 24.8 µg/mL; remaining at 1 h, 2 µM [8]: 87.6%; half-life at 2 µM [9]: 237 min; remaining at 1 h, 2 µM [10]: 83.4%"
CCCOc1ccc(C2CC(=O)Nc3nc(SCCC)[nH]c(=O)c32)cc1 (stereo unspecified),12.1 µg/mL,12.1,1 µg/mL,–
CCCS(=O)(=O)c1nc2c(c(=O)[nH]1)[C@@H](c1ccc(OC)cc1)CC(=O)N2,–,–,> 32 µg/mL,–
COc1ccc(C2CC(=O)Nc3nc(SC)[nH]c(=O)c32)c(O)c1 (stereo unspecified),> 100 µg/mL,–,> 10 µg/mL,–
CCCSc1nc2c(c(=O)[nH]1)C(c1ccccc1)CC(=O)N2 (stereo unspecified),31.9 µg/mL,3.3,9.66 µg/mL,–
C=CCSc1nc2c(c(=O)[nH]1)C(c1ccc(OCC)cc1)CC(=O)N2 (stereo unspecified),> 100 µg/mL,> 500,1 µg/mL,–
COc1ccc(C2CC(=O)Nc3nc(SC)[nH]c(=O)c32)cc1 (stereo unspecified),30.7 µg/mL,3.32,9.24 µg/mL,–
CCCSc1nc2c(c(=O)[nH]1)C(c1cc(OC)c(OC)c(OC)c1)CC(=O)N2 (stereo unspecified),> 100 µg/mL,–,> 10 µg/mL,–
